Earlier results, collected in US20240246943A1, “MULTIFACETED APPROACH TO NOVEL INTERLEUKIN-6 INHIBITORS” (UNIVERSITY OF FLORIDA RESEARCH FOUNDATION, INCORPORATED, priority 2021, published 2024).

Molecular target: T1, extracellular domain of glycoprotein 130 (gp130) (Homo sapiens, UniProt P40189)
T1 sequence (P40189 23-619 limits assumed): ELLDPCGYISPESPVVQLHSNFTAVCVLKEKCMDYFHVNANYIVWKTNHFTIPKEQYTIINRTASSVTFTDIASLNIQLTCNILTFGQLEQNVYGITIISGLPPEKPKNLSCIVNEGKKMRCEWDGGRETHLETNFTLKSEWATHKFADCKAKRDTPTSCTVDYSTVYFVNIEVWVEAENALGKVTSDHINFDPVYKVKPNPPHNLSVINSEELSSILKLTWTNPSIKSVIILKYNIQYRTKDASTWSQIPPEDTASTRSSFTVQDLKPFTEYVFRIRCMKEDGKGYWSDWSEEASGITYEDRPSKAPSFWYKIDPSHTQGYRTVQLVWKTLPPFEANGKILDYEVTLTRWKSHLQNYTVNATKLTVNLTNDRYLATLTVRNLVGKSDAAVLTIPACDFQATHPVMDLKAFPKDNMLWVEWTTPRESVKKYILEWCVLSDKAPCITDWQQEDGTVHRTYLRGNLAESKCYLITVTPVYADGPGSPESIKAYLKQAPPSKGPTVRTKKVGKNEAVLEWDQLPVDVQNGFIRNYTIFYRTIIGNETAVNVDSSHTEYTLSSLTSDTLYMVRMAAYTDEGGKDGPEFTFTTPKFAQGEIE
Details: binding to extracellular domain of gp130; literature reference 6; cited from earlier work

## CCCCC1=C(C)C(=O)[C@](C)(CN2c3ccccc3[C@]3(O)CCOC23)C1=O (stereo partly shown) [MDL-A, Madindoline A]
  Kd: 288 µM
